Here are results for three compounds from article PMC12162926, “A novel strategy for identifying hepatotoxic constituents in traditional Chinese medicine using dose-normalized intracellular accumulation as a cytotoxicity indicator: a case study of Jinlingzi San” (Frontiers in Pharmacology, 2025).

The structures appear in SMILES notation.

A short description of data set [1]: Stability of analytes in cell lysates (LC–MS/MS method validation). Format: physicochemical. The note with it: n=3; for Post-preparation stability RE%: 4 ℃, 24 h at autosampler; for Short-term stability RE%: 12 h at room temperature; for Long-term stability RE%: -80℃ for a month; for Freeze-thaw stability RE%: three freeze-thaw. How it is done: The stability of seven analytes including short-term stability (12 h at room temperature), post-preparation stability at 4 ℃ (24 h at autosampler), freeze-thaw stability (three freeze-thaw stability) and long-term stability (-80℃ for a month) was tested by analyzing three replicates at low and high QC levels during various sample storage and handling process.

In data set [2] the test system is L-02 cells. The data set is described as follows: Intracellular identification of L-02 cell-uptake components by LC–MS/MS. In kind it is in vitro ADME, human. As to conditions: L-02 exposed to JLZS-containing medium 6.5 mg/mL for 2 h. The protocol:
The powder of 25 g FT and 25 g RC was evenly blended and then refluxed twice with six-fold 50% ethanol (1: 6, w/v) for 1 h; the collected filtrate was evaporated to dryness and further dissolved in DMSO, after filtering using the 0.22-µm cellulose acetate membrane. JLZS-containing medium (6.5 mg/mL) was freshly prepared by diluting the filtrate with RPMI-1640. Likewise, RC-containing medium was freshly prepared in the same method independently.
L-02 cells were seeded on 9-cm-diameter cell culture plates; after ∼80% confluent, the cultured cells were incubated with 6.5 mg/mL JLZS-containing medium. After 2-h exposure, L-02 cells were quickly washed free of culture medium with cold PBS (−) twice and harvested with 1 mL of 0.25% trypsin-EDTA for cell isolation. The cell suspension (∼5 × 10^6 cells) was spun down, and the cells were further washed twice in cold PBS (−). Then, 200 µL of methanol was used to lyse the collected cells with vortex mixing for 1 min. The cell lysates were centrifuged at 12,000 rpm for 4 min, and 10 μL of the centrifugal supernatant was injected into the LC–MS/MS system for identified analysis.
The LC–MS/MS system consisted of a Thermo TSQ Quantum Ultra triple-quadrupole mass spectrometer equipped with an electrospray ionization source (San Jose, CA, United States). LCquan quantitation software (version 2.5.6, Thermo Fisher Scientific, Waltham, MA, USA) was used to control the LC–MS/MS system for data acquisition and analysis. Analytes and IS separation were conducted using a Waters XTerra® MS C18 column (3.0 mm × 50 mm, 5 µm) maintained at 20 °C. By injecting 5 µL samples with a flow rate of 0.2 mL/min, chromatographic separation was achieved using a mobile phase of 0.1% formic acid–water (A) and methanol (B) via gradient elution, 0.0–2.0 min, 35%–50% B; 2.0–2.1 min, 50%–55% B; 2.1–2.5 min, 55%–60% B; 2.5–14.0 min, 60% B. The analytes and IS were detected in the ESI source by polarity switching from positive for 0.0–8.0 min to negative-ion modes for 8.5–14.0 min in a single run with multiple reaction monitoring (MRM).

Details of data set [3]: method as in Gu et al., 2021. As to conditions: pharmacokinetic level, JLZS vs single herb; ref Gu et al., 2021; cited from earlier work.
The test system of data set [4] is L-02 cells. The data set is described as follows: Cell growth inhibition assay (CCK-8). In kind it is cell-based, human. The note with it: L-02, 24 h exposure, single compounds.
Data set [5] concerns L-02 cells. The data set is described as follows: Intracellular accumulation in L-02 cells by LC–MS/MS. Format: in vitro ADME, human. As to conditions: L-02, JLZS extracts 6.5 mg/mL, n = 6.

For `COc1cc2c(cc1OC)-c1cc3ccc(OC)c(OC)c3c[n+]1CC2` [PAL, palmatine], the “Post-preparation stability RE%” value is 6.8% in data set [1] (high QC level) and -1.3% in data set [1] (low QC level). Also, the “Short-term stability RE%” value in data set [1] (high QC level) was 2.5%; in data set [1] (low QC level) it was 6.5%. The “Long-term stability RE%” value turned out to be 0.0% in data set [1] (high QC level) and 6.4% in data set [1] (low QC level). For the same compound, the entries for the “Freeze-thaw stability RE%” value in data set [1] (high QC level) and in data set [1] (low QC level) were 6.5% and -3.5%, respectively. In data set [2], the “detection in cell lysates” value is recorded as “found in the cell lysates”. In data set [3], the “elimination in the JLZS group compared with the single-herb group” value is “decreased significantly”. Also, the “IC50 (cell viability)” value in data set [4] is reported as “not detected IC50 values within the set concentration range”. Moreover, the Intracellular concentration in data set [5] (time 0.25 h) came out at 11.6 ± 1.8 ng/mL; in data set [5] (time 0.5 h), 15.6 ± 2.7 ng/mL; in data set [5] (time 1 h), 29.6 ± 7.9 ng/mL; in data set [5] (time 1.5 h) it was 40.2 ± 10.1 ng/mL; in data set [5] (time 2 h) it was 49.4 ± 19.9 ng/mL; in data set [5] (time 3 h), 65.7 ± 12.4 ng/mL. Moreover, the Intracellular concentration is on record as 96.9 ± 10.7 ng/mL in data set [5] (time 5 h) and 99.5 ± 24.3 ng/mL in data set [5] (time 8 h).
In the case of `COc1cc2c(cc1OC)-c1c(C)c3ccc(OC)c(OC)c3c[n+]1CC2` [DHC, dehydrocorydaline], the “Post-preparation stability RE%” value in data set [1] (high QC level) was 6.6%; in data set [1] (low QC level), -0.2%. Moreover, the “Short-term stability RE%” value in data set [1] (high QC level) is recorded as 8.8%; in data set [1] (low QC level) it was -2.4%. Moreover, the “Long-term stability RE%” value in data set [1] (high QC level) came out at 1.3%; in data set [1] (low QC level), 2.3%. For the same compound, the “Freeze-thaw stability RE%” value in data set [1] (high QC level) is 0.4%; in data set [1] (low QC level), -0.6%. In data set [2], the “detection in cell lysates” value is “found in the cell lysates”. Also, in data set [3], the “elimination in the JLZS group compared with the single-herb group” value is on record as “decreased significantly”. Also, the “IC50 (cell viability)” value in data set [4] is “not detected IC50 values within the set concentration range”. For the same compound, the Intracellular concentration in data set [5] (time 0.25 h) is recorded as 15.2 ± 2.9 ng/mL; in data set [5] (time 0.5 h), 26.1 ± 3.0 ng/mL; in data set [5] (time 1 h), 53.1 ± 4.0 ng/mL; in data set [5] (time 1.5 h) it was 71.9 ± 5.5 ng/mL; in data set [5] (time 2 h), 74.8 ± 6.2 ng/mL; in data set [5] (time 3 h) it was 82.0 ± 7.5 ng/mL. Further, the Intracellular concentration turned out to be 122.0 ± 8.7 ng/mL in data set [5] (time 5 h) and 98.2 ± 9.6 ng/mL in data set [5] (time 8 h).
Take `c1cc2c(c3c1CC1c4cc5c(cc4CCN1C3)OCO5)OCO2` (stereo not drawn) [THC, tetrahydrocoptisine]: the “Post-preparation stability RE%” value in data set [1] (high QC level) is -0.9%; in data set [1] (low QC level) it was -0.6%. Besides, the “Short-term stability RE%” value in data set [1] (high QC level) turned out to be 4.6%; in data set [1] (low QC level) it was 3.4%. Moreover, the figures for the “Long-term stability RE%” value in data set [1] (high QC level) and in data set [1] (low QC level) were 1.2% and 5.3%, respectively. Besides, the “Freeze-thaw stability RE%” value is -1.4% in data set [1] (high QC level) and -2.5% in data set [1] (low QC level). Besides, the “detection in cell lysates” value in data set [2] is “found in the cell lysates”. In data set [3], the “elimination in the JLZS group compared with the single-herb group” value is reported as “decreased significantly”. Moreover, the “IC50 (cell viability)” value in data set [4] is recorded as “not detected IC50 values within the set concentration range”. Besides, the Intracellular concentration is 15.8 ± 3.0 ng/mL in data set [5] (time 0.25 h); 13.3 ± 0.5 ng/mL in data set [5] (time 0.5 h); 15.0 ± 2.7 ng/mL in data set [5] (time 1 h); 17.7 ± 3.6 ng/mL in data set [5] (time 1.5 h); 20.3 ± 5.4 ng/mL in data set [5] (time 2 h); 15.8 ± 2.9 ng/mL in data set [5] (time 3 h). Further, the Intracellular concentration in data set [5] (time 5 h) amounted to 15.1 ± 1.4 ng/mL; in data set [5] (time 8 h) it was 13.3 ± 1.8 ng/mL.
